Measurements reported in paper PMC9519869, “Synthesis, biological evaluation, and molecular modeling studies of new benzoxazole derivatives as PARP-2 inhibitors targeting breast cancer” (Scientific Reports, 2022).

Assays:
[1] = molecular target: T1, PARP-2 enzyme (Homo sapiens, UniProt Q9UGN5); assay: Poly (ADP-ribose) polymerase 2 (PARP-2) inhibition assay (colorimetric kit); format: biochemical; details: for IC50: in vitro enzyme assay
T1 construct: purchased BPS Bioscience 80,581
Method: Results were expressed as IC50 values (Table 2).
The PARP-2 inhibitory activity of the test compounds was assayed using PARP-2 Colorimetric Activity Assay Kit (BPS Bioscience, catalog 80,581, San Diego, CA, USA) following the manufacturer’s protocol. Briefly, histone protein mixture was coated on a 96-well microtiter plate and incubated at 4 °C overnight, washed with phosphate-buffered saline with tween-20 (PBST) three times then, the wells were blocked by adding blocking buffer 3 and incubated at room temperature for 60–90 min. After that, the plate was washed with PBST buffer three times. The master mixture which contains the PARP buffer, PARP assay mixture, activated DNA and distilled water was added to each well then, the inhibitor solution (test compound) was added. The reaction was initiated by adding PARP-2 enzyme to the wells and the plate was incubated for 1 h at room temperature. After 1 h, the reaction mixture was discarded, and the plate was washed with PBST buffer three times. Finally, the plate was treated with Streptavidin–Horseradish Peroxidase (HRP) and incubated for 30 min at room temperature and then washed with PBST buffer. The colorimetric HRP substrate was added to each well and incubated at room temperature until the positive control well developed blue color. Sulphuric acid was added to each well after the blue color development. The absorbance was read at 450 nm using UV/Vis spectrophotometer microplate reader.
Suppl. S2. In vitro PARP-2 enzyme inhibition assay
Researcher : Dr. Nadeen Ghobashy email:elghobashynadeen@gmail.com mob.01008873340
Reader : ROBONIK P2000 Eliza Reader wl 450 nm

[2] = system: MDA-MB-231; assay: In vitro cytotoxicity screening, MTT assay; details: Homo sapiens, MDA-MB-231, 24 h, read-out: In vitro Cytotoxicity (IC50, µM) MDA-MB-231
From the text: Two human breast cancer cell lines, namely, MDA-MB-231 and MCF-7 were obtained from American Type Culture Collection (ATCC) via a holding company for biological products and vaccines (VACSERA), Cairo, Egypt. […] The reagents used were RPMI-1640 medium, MTT, DMSO (sigma co., St. Louis, USA), and Fetal bovine serum (GIBCO, UK). […] MTT is a colorimetric assay based on the conversion of the yellow tetrazolium bromide (MTT) to a purple formazan derivative by mitochondrial succinate dehydrogenase in viable cells. Cell lines were cultured in RPMI-1640 medium with 10% foetal bovine serum. Antibiotics added were 100 units/ml penicillin and 100 µg/ml streptomycin maintained at 37 °C in a 5% CO2 incubator. The cell lines were seeded at a density of approximately 1.0 × 10 ^4 cells/well in a 96-well plate at 37 °C for 48 h under 5% CO2. Different concentrations of compounds were added and incubated for 24 h. After 24 h of drug treatment, 20 µl of MTT staining solution at 5 mg/ml was added to each well and incubated for 4 h at 37 °C. After 4 h, 100 µl of dimethyl sulfoxide (DMSO) were added into each well to dissolve the purple formazan crystals formed. The absorbance was recorded at 570 nm using a plate reader (EXL 800, USA). The relative cell viability in percentage was calculated as (A570 of treated samples/A570 of untreated sample) X 100 [22],[23].

T1 sequence (Q9UGN5 whole entry): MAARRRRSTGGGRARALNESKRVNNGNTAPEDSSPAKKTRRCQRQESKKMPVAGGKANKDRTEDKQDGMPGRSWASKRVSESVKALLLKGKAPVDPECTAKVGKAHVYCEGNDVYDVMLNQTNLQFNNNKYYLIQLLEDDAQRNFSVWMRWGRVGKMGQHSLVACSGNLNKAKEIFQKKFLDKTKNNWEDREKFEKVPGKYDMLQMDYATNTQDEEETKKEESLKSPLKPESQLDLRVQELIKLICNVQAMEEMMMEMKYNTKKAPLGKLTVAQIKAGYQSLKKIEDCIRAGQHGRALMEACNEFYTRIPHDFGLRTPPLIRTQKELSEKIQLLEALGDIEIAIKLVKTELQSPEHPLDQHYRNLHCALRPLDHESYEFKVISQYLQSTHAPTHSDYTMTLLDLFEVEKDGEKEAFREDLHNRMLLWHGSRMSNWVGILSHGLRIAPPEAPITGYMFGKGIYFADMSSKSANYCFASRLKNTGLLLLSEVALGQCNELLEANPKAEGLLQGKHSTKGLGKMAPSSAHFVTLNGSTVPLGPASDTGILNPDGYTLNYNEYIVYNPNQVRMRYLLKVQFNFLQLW

| Structure (SMILES) | %inh of PARP-2 (Table S2 raw data) ([1]; conc 0.01 (ng/ml)) [%] | %inh of PARP-2 (Table S2 raw data) ([1]; conc 0.1 (ng/ml)) [%] | %inh of PARP-2 (Table S2 raw data) ([1]; conc 1 (ng/ml)) [%] | %inh of PARP-2 (Table S2 raw data) ([1]; conc 10 (ng/ml)) [%] | IC50 [1] [µM] | melting point [°C] | IC50 [2] [µM] |
| --- | --- | --- | --- | --- | --- | --- | --- |
| O=C(CCNCCCc1ccccc1)Nc1ccc(-c2nc3cc(Cl)ccc3o2)cc1 [Compound 25, N-(4-(5-chlorobenzoxazol-2-yl)phenyl)-3-((3-phenylpropyl)amino)propanamide] | 36.11 | 47.92 | 73.45 | 88.59 | 0.074 ± 0.004 | 87 to 89 | 15.6 ± 1.2 |
| O=C(CNCc1ccccc1)Nc1ccc(-c2nc3cc(Cl)ccc3o2)cc1 [Compound 20, 2-(benzylamino)-N-(4-(5-chlorobenzoxazol-2-yl)phenyl)acetamide] |  |  |  |  |  | 158 to 160 | 47.6 ± 2.8 |
| O=C(CNCCCc1ccccc1)Nc1ccc(-c2nc3cc(Cl)ccc3o2)cc1 [Compound 22, N-(4-(5-chlorobenzoxazol-2-yl)phenyl)-2-((3-phenylpropyl)amino)acetamide] | 27.08 | 33.43 | 58.97 | 86.49 | 0.267 ± 0.015 | 93 to 95 | 17.4 ± 1.4 |
| CC(=O)c1nnn(-c2ccc(-c3nc4cc(Cl)ccc4o3)cc2)c1C [Compound 30, 1-(1-(4-(5-chlorobenzoxazol-2-yl)phenyl)-5-methyl-1H-1,2,3-triazol-4-yl)ethan-1-one] |  |  |  |  |  | 212 to 214 | 73.9 ± 3.6 |
| O=C(CCN1CCN(Cc2ccccc2)CC1)Nc1ccc(-c2nc3cc(Cl)ccc3o2)cc1 [Compound 15, 3-(4-benzylpiperazin-1-yl)-N-(4-(5-chlorobenzoxazol-2-yl)phenyl)propanamide] |  |  |  |  |  | 182 to 184 | 35.3 ± 2.5 |
| [N-]=[N+]=Nc1ccc(-c2nc3cc(Cl)ccc3o2)cc1 [Compound 28, 2-(4-azidophenyl)-5-chlorobenzoxazole] |  |  |  |  |  | 167 to 169 | > 100 |
| COc1ccccc1N1CCN(CCC(=O)Nc2ccc(-c3nc4cc(Cl)ccc4o3)cc2)CC1 [Compound 19, N-(4-(5-chlorobenzoxazol-2-yl)phenyl)-3-(4-(2-methoxyphenyl)piperazin-1-yl)propanamide] |  |  |  |  |  | 211 to 213 | 22.5 ± 1.9 |
| O=C(CCNCc1ccccc1)Nc1ccc(-c2nc3cc(Cl)ccc3o2)cc1 [Compound 23, 3-(benzylamino)-N-(4-(5-chlorobenzoxazol-2-yl)phenyl)propanamide] |  |  |  |  |  | 109 to 111 | 62.1 ± 3.4 |
| Nc1ccc(-c2nc3cc(Cl)ccc3o2)cc1 [Compound 3, 4-(5-chlorobenzoxazol-2-yl)aniline] |  |  |  |  |  |  | 24 ± 1.8 |
| CNC(=O)c1cc(Oc2ccc(NC(=O)Nc3ccc(Cl)c(C(F)(F)F)c3)cc2)ccn1 [Sorafenib, reference compound] |  |  |  |  |  |  | 7.47 ± 0.3 |
| CCOC(=O)c1nnn(-c2ccc(-c3nc4cc(Cl)ccc4o3)cc2)c1C [Compound 29, Ethyl 1-(4-(5-chlorobenzoxazol-2-yl)phenyl)-5-methyl-1H-1,2,3-triazole-4-carboxylate] |  |  |  |  |  | 251 to 253 | 76 ± 3.8 |
| O=C(CNCCc1ccccc1)Nc1ccc(-c2nc3cc(Cl)ccc3o2)cc1 [Compound 21, N-(4-(5-chlorobenzoxazol-2-yl)phenyl)-2-(phenethylamino)acetamide] | 20.88 | 36.15 | 52.41 | 81.94 | 0.406 ± 0.022 | 129 to 131 | 12.2 ± 1 |
| O=C(CCNCCc1ccccc1)Nc1ccc(-c2nc3cc(Cl)ccc3o2)cc1 [Compound 24, N-(4-(5-chlorobenzoxazol-2-yl)phenyl)-3-(phenethylamino)propanamide] |  |  |  |  |  | 73 to 75 | 26.5 ± 2.1 |

Second part, led by results:

| %inh of PARP-2 (Table S2 raw data) ([1]; conc 0.01 (ng/ml)) [%] | %inh of PARP-2 (Table S2 raw data) ([1]; conc 0.1 (ng/ml)) [%] | %inh of PARP-2 (Table S2 raw data) ([1]; conc 1 (ng/ml)) [%] | %inh of PARP-2 (Table S2 raw data) ([1]; conc 10 (ng/ml)) [%] | IC50 [1] [µM] | melting point [°C] | Structure (SMILES) | IC50 [2] [µM] |
| --- | --- | --- | --- | --- | --- | --- | --- |
|  |  |  |  |  | 180 to 182 | O=C(CN1CCCCC1)Nc1ccc(-c2nc3cc(Cl)ccc3o2)cc1 [Compound 6, N-(4-(5-chlorobenzoxazol-2-yl)phenyl)-2-(piperidin-1-yl)acetamide] | 42.5 ± 2.8 |
|  |  |  |  |  | 231 to 233 | O=C(CN1CCN(c2ccccc2)CC1)Nc1ccc(-c2nc3cc(Cl)ccc3o2)cc1 [Compound 16, N-(4-(5-chlorobenzoxazol-2-yl)phenyl)-2-(4-phenylpiperazin-1-yl)acetamide] | 78.8 ± 3.8 |
|  |  |  |  |  | 178 to 180 | O=C(CN1CCOCC1)Nc1ccc(-c2nc3cc(Cl)ccc3o2)cc1 [Compound 7, N-(4-(5-chlorobenzoxazol-2-yl)phenyl)-2-morpholinoacetamide] | 51.6 ± 3 |
|  |  |  |  |  | 195 to 197 | O=C(CN1CCN(Cc2ccccc2)CC1)Nc1ccc(-c2nc3cc(Cl)ccc3o2)cc1 [Compound 10, 2-(4-benzylpiperazin-1-yl)-N-(4-(5-chlorobenzoxazol-2-yl)phenyl)acetamide] | 71.7 ± 3.5 |
| 21.36 | 38.75 | 55.9 | 86.92 | 0.292 ± 0.016 | 133 to 135 | CCN(CC)CC(=O)Nc1ccc(-c2nc3cc(Cl)ccc3o2)cc1 [Compound 26, N-(4-(5-chlorobenzoxazol-2-yl)phenyl)-2-(diethylamino)acetamide] | 18.6 ± 1.3 |
|  |  |  |  |  | 239 to 241 | O=C(CCN1CCN(c2ccccc2)CC1)Nc1ccc(-c2nc3cc(Cl)ccc3o2)cc1 [Compound 18, N-(4-(5-chlorobenzoxazol-2-yl)phenyl)-3-(4-phenylpiperazin-1-yl)propanamide] | 19.2 ± 1.6 |
|  |  |  |  |  | 218 to 220 | O=C(CCl)Nc1ccc(-c2nc3cc(Cl)ccc3o2)cc1 [Compound 4, 2-chloro-N-(4-(5-chlorobenzoxazol-2-yl)phenyl)acetamide] | 43.2 ± 2.7 |
|  |  |  |  |  | 210 to 212 | O=C(CCCl)Nc1ccc(-c2nc3cc(Cl)ccc3o2)cc1 [Compound 5, 3-chloro-N-(4-(5-chlorobenzoxazol-2-yl)phenyl)propanamide] | 55.7 ± 3.2 |
|  |  |  |  |  | 218 to 220 | COc1ccccc1N1CCN(CC(=O)Nc2ccc(-c3nc4cc(Cl)ccc4o3)cc2)CC1 [Compound 17, N-(4-(5-chlorobenzoxazol-2-yl)phenyl)-2-(4-(2-methoxyphenyl)piperazin-1-yl)acetamide] | 48 ± 2.9 |
| 33.28 | 46.83 | 75.72 | 90.54 | 0.084 ± 0.005 | 167 to 169 | CCN1CCN(CCC(=O)Nc2ccc(-c3nc4cc(Cl)ccc4o3)cc2)CC1 [Compound 14, N-(4-(5-chlorobenzoxazol-2-yl)phenyl)-3-(4-ethylpiperazin-1-yl)propanamide] | 10.8 ± 0.9 |
|  |  |  |  |  | 179 to 181 | CN1CCN(CC(=O)Nc2ccc(-c3nc4cc(Cl)ccc4o3)cc2)CC1 [Compound 8, N-(4-(5-chlorobenzoxazol-2-yl)phenyl)-2-(4-methylpiperazin-1-yl)acetamide] | 30.9 ± 2.3 |
|  |  |  |  |  | 153 to 155 | CCN1CCN(CC(=O)Nc2ccc(-c3nc4cc(Cl)ccc4o3)cc2)CC1 [Compound 9, N-(4-(5-chlorobenzoxazol-2-yl)phenyl)-2-(4-ethylpiperazin-1-yl)acetamide] | 39.5 ± 2.6 |
